Results taken from patent US20220401514A1, “ANTIMICROBIAL, BACTERIOPHAGE-DERIVED POLYPEPTIDES AND THEIR USE AGAINST GRAM-NEGATIVE AND ACID-FAST BACTERIA” (CONTRAFECT CORPORATION, priority 2019, published 2022).
Where two headings read alike, the source gives them in different places.

Legend:
[1] = test system: P. aeruginosa strain CFS-1292; experiment: MIC in presence of mouse, rat, rabbit and human serum ([…] each); type: cell-based, Pseudomonas aeruginosa; conditions: P. aeruginosa CFS-1292
Description: The activity of several Chp peptides against P. aeruginosa strain CFS-1292 in animal serum was evaluated. […] Rat, mouse, and rabbit serum were all obtained from pooled gender samples.

[2] = test system: Enterobacter cloacae; experiment: microbe, parasite or virus in culture; type: cell-based
Summary of the method: (§1)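 Medium: CAA with added human serum. Peptides tested for minimal inhibitory concentration against each strain.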

[3] = test system: Escherichia coli; experiment: microbe, parasite or virus in culture; type: cell-based
Summary of the method: as §1

[4] = test system: P. aeruginosa strain CFS-1292; experiment: MIC in presence and absence of Survanta pulmonary surfactant; type: cell-based, Pseudomonas aeruginosa
[5] = test system: M. scrofulaceum; experiment: 45 hr MIC against M. scrofulaceum (NTM); type: cell-based, Mycobacterium scrofulaceum; conditions: M. scrofulaceum Prissick and Masson ATCC 19981
[6] = test system: Mycobacterium tuberculosis strains
Description: MIC values for various Chp peptides were determined using the CLSI method for broth microdilution in 96-well microtiter format.
Next, MIC values for various Chp peptides were determined using the CLSI method above for broth microdilution in 96-well microtiter format for two different Mycobacterium tuberculosis strains. The MIC was determined as explained above for the NTM strains.

[7] = test system: carbapenem-resistant bacterial strains; experiment: organism not typed; type: cell-based
Description: Determination of Minimal Inhibitory Concentrations (MIC).

[8] = test system: Pseudomonas aeruginosa; experiment: microbe, parasite or virus in culture; type: cell-based; conditions: for MIC: CAA without human serum
[9] = test system: P. aeruginosa strain CFS-1292; experiment: Checkerboard assay (FICI) with antibiotics, P. aeruginosa; type: cell-based, Pseudomonas aeruginosa; set-up: key to FIC Index: FICI = FIC A + FIC B; each FIC = MIC in combination / MIC alone; conditions: P. aeruginosa CFS-1292
Summary of the method: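 Antibiotic diluted 2-fold along one plate axis against Chp peptide; bacteria added at 1×10^5 […] in CAA, optionally with human serum or pulmonary surfactant.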

[10] = E. cloacae isolates (n per peptide in table)
[11] = E. coli isolates (n per peptide in table)
[12] = P. aeruginosa isolates (n per peptide in table)

Sequence: MRLKMARRRYRLPRRRSRRLFSRTALRMHPRNRLRRIMRGGIRF [Chp2]
- MIC BALB/C Mouse Serum ([1]; BALB/C mouse serum […]): 32 µg/mL
- MIC CAA ([1]; CAA): 0.5 µg/mL
- MIC New Zealand White Rabbit Serum ([1]; New Zealand White rabbit serum […]): 2 µg/mL
- MIC Sprague Dawley Rat Serum ([1]; Sprague Dawley rat serum […]): 2 µg/mL
- MIC Human Serum ([1]; human serum […]): 0.5 µg/mL
- MIC50 [2, 10]: 0.5 µg/mL
- MIC100 [2, 10]: 1 µg/mL
- MIC Range [2, 10]: 0.125 to 1 µg/mL
- MIC ([2]; Enterobacter cloacae (ATCC 13047, MIC control strain), RSC 1240, CAA without human serum): 4 µg/mL
- MIC ([2]; Enterobacter cloacae ATCC 13047, CAA supplemented with human serum): 1 µg/mL
- MIC ([3]; E. coli (ATCC 25922, MIC control strain), RSC 813, CAA without human serum): 2 µg/mL
- MIC ([3]; E. coli (HM346, colon, Crohn's disease), RSC 1212, CAA without human serum): 2 µg/mL
- MIC50 [3, 11]: 0.5 µg/mL
- MIC100 [3, 11]: 2 µg/mL
- MIC Range [3, 11]: 0.25 to 2 µg/mL
- MIC ([3]; Escherichia coli ATCC 25922, CAA supplemented with human serum): 1 µg/mL
- MIC ([4]; CAA media + 0.19 mg/mL Survanta): 1 µg/mL
- MIC ([4]; CAA media + […] Survanta): 1 µg/mL
- MIC ([4]; CAA media alone): 0.5 µg/mL
- 45 hr MIC [5]: 0.5 µg/mL
- MIC ([6]; Mycobacterium tuberculosis (Zopf) Lehmann and Neumann ATCC 25177): 16 µg/mL
- MIC ([6]; Mycobacterium tuberculosis (Zopf) Lehmann and Neumann ATCC 35817): 16 µg/mL
- MIC ([7]; carbapenem-resistant isolate PA19): 0.5 µg/mL
- MIC ([7]; carbapenem-resistant isolate PA20): 1 µg/mL
- MIC ([7]; carbapenem-resistant isolate PA21): 1 µg/mL
- MIC ([7]; carbapenem-resistant isolate PA22): 1 µg/mL
- MIC ([7]; carbapenem-resistant isolate PA23): 1 µg/mL
- MIC ([7]; carbapenem-resistant isolate PA24): 1 µg/mL
- MIC ([7]; carbapenem-resistant isolate WLC-452): 0.5 µg/mL
- MIC ([8]; P. aeruginosa 453 (Human clinical isolate, HSS), RSC 1292): 4 µg/mL
- MIC ([8]; P. aeruginosa (ATCC 14213, human hip wound), RSC 1111): 4 µg/mL
- MIC ([8]; P. aeruginosa (ATCC 15152, abscess in middle ear), RSC 1110): 4 µg/mL
- MIC ([8]; P. aeruginosa (ATCC 15692, infected wound), RSC 489): 4 µg/mL
- MIC ([8]; P. aeruginosa (ATCC 15692, infected wound), RSC 1115): 4 µg/mL
- MIC ([8]; P. aeruginosa (ATCC 17646, human liver abscess), RSC 1109): 4 µg/mL
- MIC ([8]; P. aeruginosa (ATCC 19142, tracheobronchial secretion), RSC 1108): 2 µg/mL
- MIC ([8]; P. aeruginosa (ATCC 25102, bacteriophage host), RSC 1114): 4 µg/mL
- MIC ([8]; P. aeruginosa (ATCC 27853, MIC control strain), RSC 815): 4 µg/mL
- MIC ([8]; P. aeruginosa (ATCC BAA-27, lab strain), RSC 1113): 4 µg/mL
- MIC ([8]; P. aeruginosa (PAO1, alternate source, HER1018), RSC 490): 4 µg/mL
- MIC50 [8, 12]: 1 µg/mL
- MIC100 [8, 12]: 1 µg/mL
- MIC Range [8, 12]: 0.25 to 1 µg/mL
- FIC Index ([9]; Chp peptide combined with Amikacin): 0.5
- FIC Index ([9]; Chp peptide combined with Azithromycin): 0.375
- FIC Index ([9]; Chp peptide combined with Aztreonam): 0.375
- FIC Index ([9]; Chp peptide combined with Ciprofloxacin): 0.75
- FIC Index ([9]; Chp peptide combined with Colistin): 0.375
- FIC Index ([9]; Chp peptide combined with Gentamicin): 0.5625
- FIC Index ([9]; Chp peptide combined with Imipenem): 0.375
- FIC Index ([9]; Chp peptide combined with Levofloxacin): 0.5
